Measured values taken from patent publication US12414907B2, “Peptide having hair growth promoting activity and use thereof” (CAREGEN CO., LTD., priority 2019, dated 2025).

Assays:
ERK = experiment: Western blotting of phosphorylated ERK in dermal papilla cells; format: cell-based, human; conditions: peptide 0.5 uM, 5 uM or 50 uM, serum-free medium, 30 minutes; FIG. 2
Experimental: (§1) The effect of the peptide consisting of the amino acid sequence of SEQ ID NO: 1 on the activation of proliferation-related factors in hair follicle cells was to be confirmed. In detail, human dermal papilla cells were seeded in a 6-well plate at a density of 4×10^5 cells/well, and cultured for 16 hours. The culture medium was replaced with a serum-free medium, and the peptide was added thereto at a concentration of 0.5 uM, 5 uM, or 50 uM, and the cells were cultured for 30 minutes. Here, as a positive control group, 5 uM of Minoxidil was treated. Cell lysates were prepared by harvesting the cell, and then, western blotting was performed with respect to phosphorylated ERK and phosphorylated AKT by using p-ERK antibodies and p-AKT antibodies (Santacruz biotechnology, USA).

DKK-1 = experiment: Western blotting of DKK-1 expression in DHT-stimulated dermal papilla cells; format: cell-based, human; conditions: DHT 10 ug/ml as stimulator, peptide 0.5 uM, 5 uM or 50 uM, 24 hours; FIG. 4
Experimental: The inhibitory effect of the peptide consisting of the amino acid sequence of SEQ ID NO: 1 on the expression of DKK-1, which is a hair loss-related factor, in hair follicle cells was to be confirmed. In detail, human dermal papilla cells were seeded in a 6-well plate at a density of 4x10^5 cells/well, and cultured for 16 hours. After the culture medium was replaced with a serum-free medium, dihydrotestosterone (DHT) as a stimulator was added thereto at a concentration of 10 ug/ml while peptide was added thereto at a concentration of 0.5 uM, 5 uM, or 50 uM. Then, the cells were cultured for 24 hours. The cells were harvested and nuclear proteins thereof were isolated by using a nuclear protein extraction kit. Then, western blotting was performed by using DKK-1 antibodies (Santacruz biotechnology, USA). Here, DHT is known as a hair loss hormone that increases the expression of DKK-1, which is a hair loss-inducible factor, by activating an androgen receptor.

TGFβ-1 = experiment: PCR of TGFβ-1 expression in dermal papilla cells; format: cell-based, human; conditions: peptide 0.5 uM, 5 uM or 50 uM, serum-free medium, 24 hours, PCR with GAPDH; FIG. 5
Experimental: The inhibitory effect of the peptide consisting of the amino acid sequence of SEQ ID NO: 1 on the expression of TGFβ-1, which is a hair loss-related factor, in hair follicle cells was to be confirmed. In detail, human dermal papilla cells were seeded in a 6-well plate at a density of 4x10^5 cells/well, and cultured for 16 hours. The culture medium was replaced with a serum-free medium, and the peptide was added thereto at a concentration of 0.5 uM, 5 uM, or 50 uM, and the cells were cultured for 24 hours. Here, as a positive control group, 5 uM of Minoxidil was treated. After the cells were harvested, RNA was extracted therefrom and used for synthesis of cNDA by using a cDNA synthesis kit and PCR pre-mix. TGFβ-1, as an androgen-inducible factor in hair follicle cells, is known to be related to hair loss.

[1] = test system: human hair follicle dermal papilla cells; experiment: Proliferation of human hair follicle dermal papilla cells (MTT method); format: cell-based; conditions: peptide 0.5 uM, 5 uM or 50 uM, serum-free medium, 72 hours; FIG. 1
Experimental: The promoting effect of the peptide consisting of the amino acid sequence of SEQ ID NO: 1 on the proliferation of hair follicle cells was to be confirmed. In detail, human hair follicle dermal papilla cells were seeded in a 96-well plate at a density of 5×10^3 cells/well, and cultured for 16 hours. The culture medium was replaced with a serum-free medium, and the peptide was added thereto at a concentration of 0.5 uM, 5 uM, or 50 uM, and the cells were cultured for 72 hours. Here, as a positive control group, 5 uM of Minoxidil which is used as a hair loss treatment was treated. Afterwards, an MTT method was performed to measure the cell proliferation. In detail, 4 ug/ml of 3-(4,5-dimethylthiazol-2-yl)-2,5-diphenyltetrazolium bromide (MTT) was treated, and 4 hours later, DMSO was treated thereon to dissolve formazan. Then, the absorbance at 560 nm was measured by using a spectrophotometer.

β-catenin = experiment: Western blotting of nuclear β-catenin in dermal papilla cells; format: cell-based, human; conditions: peptide 0.5 uM, 5 uM or 50 uM, serum-free medium, 24 hours, nuclear proteins; FIG. 3
Experimental: The effect of the peptide consisting of the amino acid sequence of SEQ ID NO: 1 on the activation of a proliferation mechanism of hair follicle cells was to be confirmed. In detail, human dermal papilla cells were seeded in a 6-well plate at a density of 4×10^5 cells/well, and cultured for 16 hours. The culture medium was replaced with a serum-free medium, and the peptide was added thereto at a concentration of 0.5 uM, 5 uM, or 50 uM, and the cells were cultured for 24 hours. Here, as a positive control group, 5 uM of Minoxidil was treated. The cells were harvested and nuclear proteins thereof were isolated by using a nuclear protein extraction kit (Merck, USA). Then, western blotting was performed with respect to β-catenin which is a factor related to proliferation of the dermal papilla cells by using β-catenin antibodies (Santacruz biotechnology, USA).

AKT = experiment: Western blotting of phosphorylated AKT in dermal papilla cells; format: cell-based, human; conditions: peptide 0.5 uM, 5 uM or 50 uM, serum-free medium, 30 minutes; FIG. 2
Experimental: as §1

WQNMRL [SEQ ID NO: 1]
phosphorylation of ERK (ERK): induced | expression of DKK-1 (DKK-1): inhibit the expression of DKK-1 | expression of TGFβ-1 (TGFβ-1): inhibit the expression of TGFβ-1 | proliferation of human dermal papilla cells (MTT, absorbance at 560 nm) [1]: promoted the proliferation of human dermal papilla cells | movement of β-catenin from the cytoplasm to the nucleus (β-catenin): increased | phosphorylation of AKT (AKT): induced
